This note sets out measurements from US8791148B2, “Substituted benzimidazolone derivatives, medicaments comprising them and their use” (AbbVie Deutschland GmbH & Co. KG, priority 2006, dated 2014).

The assay addresses T1, human vasopressin V1b receptor (Homo sapiens, UniProt P47901).
T1 construct: expressed in transfected cells; host or cells: CHO-K1 (cell line hV1b-3H2_CHO), membrane preparation
T1 sequence (P47901 1-424): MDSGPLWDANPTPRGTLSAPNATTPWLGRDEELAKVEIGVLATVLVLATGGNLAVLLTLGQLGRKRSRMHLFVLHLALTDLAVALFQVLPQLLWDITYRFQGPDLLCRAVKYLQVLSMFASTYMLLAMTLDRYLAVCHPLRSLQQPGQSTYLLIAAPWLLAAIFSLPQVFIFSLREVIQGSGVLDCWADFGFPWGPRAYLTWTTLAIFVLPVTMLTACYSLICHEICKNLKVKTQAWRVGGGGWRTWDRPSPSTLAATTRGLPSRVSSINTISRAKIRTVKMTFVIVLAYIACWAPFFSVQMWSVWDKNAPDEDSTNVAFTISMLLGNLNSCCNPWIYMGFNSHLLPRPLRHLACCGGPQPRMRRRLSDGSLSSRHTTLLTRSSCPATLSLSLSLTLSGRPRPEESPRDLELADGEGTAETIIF
The assay is described as follows: Vasopressin V1b receptor binding assay. Particulars: membranes from CHO-K1 cells with stably expressed human V1b receptors; displacement of 1.5 nM 3H-AVP; read-out: V1b receptor affinity (affinity constant Ki). The protocol:
Vasopressin V1b Receptor Binding Assay:
The test substances were dissolved in a concentration of 10^−2 M in DMSO and further diluted to 5×10^−4 M to 5×10^−9 M in DMSO. This series of DMSO predilutions was diluted 1:10 with assay buffer. The substance concentration was again diluted 1:5 in the assay mixture (2% DMSO in the mixture).
The membrane pellet was again homogenized and centrifuged as described and then taken up in 50 mM Tris-HCl, pH 7.4, homogenized and stored in aliquots frozen in liquid nitrogen at −190° C.
The incubation buffer was: 50 mM Tris, 10 mM MgCl2, 0.1% BSA, pH 7.4. […] The nonspecific binding was determined with 1 uM AVP (Bachem #H1780). All determinations were carried out as triplicate determinations. After incubation (60 minutes at room temperature), the free radioligand was removed by vacuum filtration (Skatron cell harvester 7000) through Wathman GF/B glass fiber filter mats, and the filters were transferred into scintillation vials. The liquid scintillation measurement took place in a Tricarb model 2000 or 2200CA instrument (Packard). Conversion of the measured cpm into dpm was carried out with the aid of a standard quench series.
The binding parameters were calculated by nonlinear regression in SAS.
The above assay was used to measure the affinities of the compounds of the invention for the human vasopressin V1b receptor and to determine the affinity constants (Ki).
For orientation: Ki means the dissociation constant of the complex between target and ligand, obtained from inhibition or displacement. For the compound `COc1ccc(S(=O)(=O)n2c(=O)n(C(C(=O)NCCc3c[nH]cn3)c3ccccc3)c3cc(Cl)ccc32)cc1` (stereo not shown) [Example 116], the Ki is 500 to 10000 nM.

`COc1ccc(S(=O)(=O)n2c(=O)n(C(C(=O)N3CCC[C@H](NC4CCN(C(C)C)CC4)C3)c3ccccc3)c3cc(C#N)ccc32)cc1` (stereo partly drawn) [Example 247, 3-{2-[(S)-3-(1-Isopropyl-piperidin-4-ylamino)-piperidin-1-yl]-2-oxo-1-phenylethyl}-1-(4-methoxy-benzenesulfonyl)-2-oxo-2,3-dihydro-1H-benzoimidazole-5-carbonitrile]: the Ki is less than 100 nM.

For `CCCN1CCN(C2CCN(C(=O)C(c3cccc(OC)c3)n3c(=O)n(S(=O)(=O)c4ccc(OC)cc4)c4ccc(Cl)cc43)C2)CC1` (stereo not shown) [Example 79, 5-Chloro-1-(4-methoxybenzenesulfonyl)-3-{1-(3-methoxyphenyl)-2-oxo-2-[3-(4-propylpiperazin-1-yl)pyrrolidin-1-yl]-ethyl}-1,3-dihydrobenzimidazol-2-one], the Ki was less than 100 nM.

On to `CN1CCN(C2CCN(C(=O)C(c3ccccc3)n3c(=O)n(S(=O)(=O)c4ccc(C#N)cc4)c4ccc(Cl)cc43)CC2)CC1` (stereo not shown) [Example 65, 4-(5-Chloro-3-{2-[4-(4-methylpiperazin-1-yl)piperidin-1-yl]-2-oxo-1-phenylethyl}-2-oxo-2,3-dihydrobenzimidazole-1-sulfonyl)benzonitrile], for which the Ki lay within 100 to 500 nM.

As for `COc1ccc(S(=O)(=O)n2c(=O)n(CC(=O)N3CCC(N4CCN(C)CC4)CC3)c3cc(Cl)ccc32)cc1` [Example 95, 5-Chloro-1-(4-methoxybenzenesulfonyl)-3-{2-[4-(4-methylpiperazin-1-yl)piperidin-1-yl]-2-oxo-ethyl}-1,3-dihydrobenzimidazol-2-one], the Ki lay in the range of 500 to 10000 nM.

On to `COc1ccc(S(=O)(=O)n2c(=O)n(C(C(=O)NCCN3CCCCC3)c3ccccc3)c3cc(Cl)ccc32)cc1` (stereo not shown) [Example 114, 2-[6-Chloro-3-(4-methoxybenzenesulfonyl)-2-oxo-2,3-dihydrobenzimidazol-1-yl]-2-phenyl-N-(2-piperidin-1-ylethyl)acetamide], for which the Ki lay in the range of 500 to 10000 nM.

With `COc1ccc(S(=O)(=O)n2c(=O)n(C(C(=O)N3CCN(c4ccncc4)CC3)c3ccccc3)c3ccccc32)c(OC)c1` (stereo not shown) [Example 70, 1-(2,4-Dimethoxybenzenesulfonyl)-3-[2-oxo-1-phenyl-2-(4-pyridin-4-ylpiperazin-1-yl)ethyl]-1,3-dihydrobenzimidazol-2-one], the inhibition constant Ki is 500 to 10000 nM.

On to `O=C(C(c1ccccc1)n1c(=O)n(S(=O)(=O)c2ccc(Cl)s2)c2ccc(Cl)cc21)N1CCN(c2ccncc2)CC1` (stereo not shown) [Example 7, 5-Chloro-1-(5-chlorothiophene-2-sulfonyl)-3-[2-oxo-1-phenyl-2-(4-pyridin-4-ylpiperazin-1-yl)ethyl]-1,3-dihydrobenzimidazol-2-one], for which the Ki is 500 to 10000 nM.

Regarding `N#Cc1ccc2c(c1)n(C(C(=O)N1CCN(c3ccncc3)CC1)c1ccccc1)c(=O)n2S(=O)(=O)c1cccc2cccnc12` (stereo not shown) [Example 50, 2-Oxo-3-[2-oxo-1-phenyl-2-(4-pyridin-4-ylpiperazin-1-yl)ethyl]-1-(quinoline-8-sulfonyl)-2,3-dihydro-1H-benzimidazole-5-carbonitrile], the Ki lay in the range of 500 to 10000 nM.

Consider `CCCN1CCN([C@H]2CCN(C(=O)C(c3ccccc3)n3c(=O)n(S(=O)(=O)c4ccccc4OC)c4ccc(C#N)cc43)C2)CC1` (stereo partly drawn) [Example 205, 1-(2-Methoxybenzenesulfonyl)-2-oxo-3-{2-oxo-1-phenyl-2-[(S)-3-(4-propylpiperazin-1-yl)pyrrolidin-1-yl]ethyl}-2,3-dihydro-1H-benzimidazole-5-carbonitrile], for which the Ki fell in the range of 500 to 10000 nM.

Regarding `COc1ccc(S(=O)(=O)n2c(=O)n(C(C(=O)N3CCCC3C(=O)N(C)C)c3ccccc3)c3cc(Cl)ccc32)cc1` (stereo not shown) [Example 93, 1-{2-[6-Chloro-3-(4-methoxybenzenesulfonyl)-2-oxo-2,3-dihydrobenzimidazol-1-yl]-2-phenylacetyl}pyrrolidine-2-dimethylcarboxamide], the Ki lay within 100 to 500 nM.

On to `COc1ccc(S(=O)(=O)n2c(=O)n(C(C(=O)N3CCN(C4CCN(C)CC4)CC3)c3ccccc3)c3cc(C#N)ccc32)cc1` (stereo not shown) [Example 11, 1-(4-Methoxybenzenesulfonyl)-3-{2-[4-(1-methylpiperidin-4-yl)piperazin-1-yl]-2-oxo-1-phenylethyl}-2-oxo-2,3-dihydro-1H-benzimidazole-5-carbonitrile], for which the Ki fell in the range of 500 to 10000 nM.

In the case of `COc1ccc(S(=O)(=O)n2c(=O)n(C(C)C(=O)N3CCN(c4ccncc4)CC3)c3cc(Cl)ccc32)c(OC)c1` (stereo not shown) [Example 31, 5-Chloro-1-(2,4-dimethoxybenzenesulfonyl)-3-[1-methyl-2-oxo-2-(4-pyridin-4-ylpiperazin-1-yl)ethyl]-1,3-dihydrobenzimidazol-2-one], the Ki lay within 100 to 500 nM.

Consider `COc1ccc(S(=O)(=O)n2c(=O)n(C(C(=O)N3CC[C@@H](CN4CCN(Cc5ccccc5)CC4)C3)c3ccccc3)c3cc(C#N)ccc32)cc1` (stereo partly drawn) [Example 221, 3-{2-[(S)-3-(4-Benzyl-piperazin-1-ylmethyl)-pyrrolidin-1-yl]-2-oxo-1-phenylethyl}-1-(4-methoxy-benzenesulfonyl)-2-oxo-2,3-dihydro-1H-benzoimidazole-5-carbonitrile; compound with trifluoroacetic acid], for which the Ki was less than 100 nM.

With `N#Cc1ccc(S(=O)(=O)n2c(=O)n(CC(=O)N3CCN(c4ccncc4)CC3)c3cc(Cl)ccc32)cc1` [Example 26, 4-{5-Chloro-2-oxo-3-[2-oxo-2-(4-pyridin-4-ylpiperazin-1-yl)ethyl]-2,3-dihydrobenzimidazole-1-sulfonyl}benzonitrile], the Ki was in the range of 500 to 10000 nM.

With `COc1ccc(S(=O)(=O)n2c(=O)n(C(C(=O)NCCN3CCNCC3)c3ccccc3)c3cc(Cl)ccc32)cc1` (stereo not shown) [Example 131, 2-[6-Chloro-3-(4-methoxybenzenesulfonyl)-2-oxo-2,3-dihydrobenzimidazol-1-yl]-2-phenyl-N-(2-piperazin-1-ylethyl)acetamide], the Ki lay within 100 to 500 nM.

As to `COc1ccc(S(=O)(=O)n2c(=O)n(C(C(=O)N3CCN(C4CCN(C)CC4)CC3)c3ccccc3)c3cc(Cl)c(Cl)cc32)cc1` (stereo not shown) [Example 36, 5,6-Dichloro-1-(4-methoxybenzenesulfonyl)-3-{2-[4-(1-methylpiperidin-4-yl)piperazin-1-yl]-2-oxo-1-phenylethyl}-1,3-dihydrobenzimidazol-2-one], the Ki is 500 to 10000 nM.

For the compound `COc1ccc(S(=O)(=O)n2c(=O)n(C(C(=O)N3CCN(C4CCN(C)CC4)CC3)c3ccccc3)c3cc(C#N)ccc32)c(OC)c1` (stereo not shown) [Example 10, 1-(2,4-Dimethoxybenzenesulfonyl)-3-{2-[4-(1-methylpiperidin-4-yl)piperazin-1-yl]-2-oxo-1-phenylethyl}-2-oxo-2,3-dihydro-1H-benzimidazole-5-carbonitrile], the Ki is 500 to 10000 nM.

For the compound `COc1ccc(S(=O)(=O)n2c(=O)n(CC(=O)N3CCN(c4ccncc4)CC3)c3cc(Cl)ccc32)c(OC)c1` [Example 25, 5-Chloro-1-(2,4-dimethoxybenzenesulfonyl)-3-[2-oxo-2-(4-pyridin-4-ylpiperazin-1-yl)-ethyl]-1,3-dihydrobenzimidazol-2-one], the Ki lay within 100 to 500 nM.
